From PubChem BioAssay (NCI)
Where “and” joins values, the source holds several entries; their conditions need not be identical. Equal values may be shown once.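 Where inhibition never reached the appropriate level, the endpoint shown equals the highest concentration tested. Otherwise, values were interpolated linearly from a five-concentration, 48-hour dose response in 96-well plates. Abbreviation: GI50, concentration required for 50% inhibition of growth. The concentration for full growth arrest is given as TGI.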

system: MDA-MB-468 breast; experiment: inhibition of tumour cell growth, NCI panel, 48 h

Point of comparison: `OCc1ccc(-c2ccc(-c3ccc(CO)o3)[se]2)o1`, GI50 219 nM. Against it:
- COC(=O)CCC(=O)NC1=C(Nc2ccc(OC)cc2)C(=O)c2ccccc2C1=O — 14-fold higher, 3090 nM
- COC(=O)[C@@H](C)C[C@H](Cc1ccccc1)NC(=O)c1csc(CC[C@H](C(C)C)N(C)C(=O)[C@@H](NC(=O)[C@H]2CCCCN2C)C(C)C)n1 — 3.2-fold lower, 68.9 nM
- O=c1c(Oc2ccc(F)cc2F)cc2cnc(NC3CCOCC3)nc2n1CCCO — higher, > 25000 nM
- COC(=O)CCc1c[nH]c2ccc(N(CCCl)CCCl)cc12 — within 1.5-fold, 311 nM
- CCOC(=O)N1CCN(c2nc(Nc3cc(C)[nH]n3)c3ccccc3n2)CC1 — 8.2-fold higher, 1800 nM
- Cc1ccc(-c2csc(/N=C3\C(=O)Nc4ccccc43)n2)cc1 — 6.7-fold higher, 1460 nM
- Cn1cc(C2=C(c3cn(CCCCN)c4ccccc34)C(=O)NC2=O)c2ccccc21 — higher, > 25000 nM
- O=S(=O)(Nc1ccccc1Cl)c1ccc(-c2cnc(C3CC3)o2)cc1 — within 1.5-fold, 236 nM
- CCCNNC(=O)/C=C/c1ccc(CNCCc2c(C)[nH]c3ccccc23)cc1 — 7.8-fold lower, 27.9 nM
- Fc1ccc2[nH]cc(-c3nonc3-c3c[nH]c4ccc(Br)cc34)c2c1 — 8.9-fold higher, 1940 nM
- COc1cccc(-c2cc(=O)c3cc(OC)ccc3[nH]2)c1 — 4.5-fold higher, 982 nM
- COc1cc(/C=C2\C(=O)Nc3cc(C)c(O)cc32)cc(OC)c1OC — 6.8-fold higher, 1500 nM
- CN(C)S(=O)(=O)c1ccc(-c2nc(C(Cl)Cl)nc3cc(-c4ccc(F)cc4)nn23)cc1 — 7.4-fold higher, 1630 nM
- COc1cc(-c2cc3ncccc3c3nc(N)c4cccnc4c23)cc(OC)c1OC — 2.5-fold higher, 555 nM
- Nc1ccc(C2=NN(c3ccccc3)C(c3ccc(Cl)cc3)C2)cc1 (stereo unspecified) — 7.6-fold higher, 1660 nM
- COc1ccc(-c2cn[nH]c2-c2cc(OC)c3c(c2)OCO3)cc1 — within 1.5-fold, 152 nM
- Cc1nc(SCC(=O)Nc2nc(-c3ccc(Cl)cc3)cs2)n(Nc2ccccc2)c1C — 6.6-fold higher, 1450 nM
- COc1ccc(C(=O)/C=C/c2ccc(C)cc2)cc1OC — 52-fold higher, 11400 nM
- CCOC(=O)c1sc(-c2ccc(OS(=O)(=O)c3ccc(Br)s3)c(C=O)c2)nc1C — 14-fold higher, 2960 nM
- CC[N+](CC)=c1sc2c(s1)C(c1ccc(Cl)cc1)Oc1ccc(Cl)cc1-2 (stereo unspecified) — 6.4-fold higher, 1400 nM
- CO[C@H]1/C=C/O[C@@]2(C)Oc3c(C)c(O)c4c(c3C2=O)C(=O)C(/C=N/N(c2ccccc2)c2ccccc2)=C(NC(=O)/C(C)=C\C=C\[C@H](C)[C@H](O)[C@@H](C)[C@@H](O)[C@@H](C)[C@H](OC(C)=O)[C@@H]1C)C4=O — 9.5-fold higher, 2090 nM
- Cc1ccc(C)c2c1C(O)(C#Cc1ccccc1)c1ccccc1C2(O)C#Cc1ccccc1 (stereo unspecified) — 16-fold higher, 3570 nM
- O=C(Nc1cccc(-n2ccc3c(NC(=O)c4ccccc4)nccc32)c1)Nc1cc(C(F)(F)F)cc(C(F)(F)F)c1 — 7.1-fold higher, 1550 nM
- C=C1C(=O)O[C@H]2[C@H]1CC/C(COC(=O)CSCCSCC(=O)OC/C1=C/CC[C@@]3(C)O[C@H]3[C@H]3OC(=O)C(=C)[C@@H]3CC1)=C\CC[C@@]1(C)O[C@@H]21 — 4.9-fold higher, 1070 nM
- O=C(CO[N+](=O)[O-])Nc1ccc(C(=O)/C=C/c2ccc(Cl)cc2)cc1 — 9.4-fold higher, 2060 nM
- COC(=O)c1c2c(c[n+]([O-])c1C)C(=O)C=CC2=O — 4.2-fold higher, 914 nM
- Cc1nn(-c2nc3ccccc3[nH]2)c(N)c1-c1ccc(Cl)cc1 — 12-fold higher, 2690 nM
- CCC[CH2][Sn]([CH2]CCC)([CH2]CCC)[O]c1ccc(Cl)cc1Cl — 2.1-fold lower, 105 nM
- C#CCOc1cccc(-c2ncnc3cc(NC(=O)CCl)ccc23)c1 — 6.6-fold higher, 1450 nM
- CNC(=O)c1ccc(N2CCN(Cc3ccc4nc(C)c(=O)[nH]c4c3F)CC2)c(F)n1 — 130-fold higher, 27800 nM
- CCc1cccc(C)c1NC(=O)c1sc2nc3c(cc2c1N)CCCCC3 — 19-fold higher, 4180 nM
- S=C(Nc1ccc(Br)cc1)Nc1ccc(Br)cc1 — 10-fold higher, 2260 nM
- CCN(Cc1cccc(F)c1)c1ccc(CO)c(Cl)c1 — 14-fold lower, 15.7 nM
- COc1cc(NC(N)=NCCC(C)(C)Oc2ccc(C(F)(F)F)cc2)ncc1C#N — 4.9-fold higher, 1070 nM
- Cc1ccc2c(n1)C(=O)C(Cl)=C(Nc1ccc(C)c(C)c1)C2=O — within 1.5-fold, 317 nM
- CN(C)CCCOc1ccc(-c2ccc3ncc4c(c3c2)n(C2CCOCC2)c(=O)n4C)cn1 — 9.5-fold higher, 2080 nM
- COc1cc(OC)cc(N(CCNC(C)C)c2ccc3ncc(-c4cnn(C)c4)nc3c2)c1 — 14-fold higher, 3070 nM

Point of comparison: `CO[C@H]1/C=C/O[C@@]2(C)Oc3c(C)c(O)c4c(c3C2=O)C(=O)C(/C=N/N(c2ccccc2)c2ccccc2)=C(NC(=O)/C(C)=C\C=C\[C@H](C)[C@H](O)[C@@H](C)[C@@H](O)[C@@H](C)[C@H](OC(C)=O)[C@@H]1C)C4=O`, TGI 4690 nM. Against it:
- COC(=O)CCC(=O)NC1=C(Nc2ccc(OC)cc2)C(=O)c2ccccc2C1=O — 2.6-fold higher, 12200 nM
- COC(=O)[C@@H](C)C[C@H](Cc1ccccc1)NC(=O)c1csc(CC[C@H](C(C)C)N(C)C(=O)[C@@H](NC(=O)[C@H]2CCCCN2C)C(C)C)n1 — 17-fold lower, 275 nM
- O=c1c(Oc2ccc(F)cc2F)cc2cnc(NC3CCOCC3)nc2n1CCCO — higher, > 25000 nM
- COC(=O)CCc1c[nH]c2ccc(N(CCCl)CCCl)cc12 — 2.6-fold lower, 1810 nM
- CCOC(=O)N1CCN(c2nc(Nc3cc(C)[nH]n3)c3ccccc3n2)CC1 — 1.8-fold higher, 8420 nM
- Cc1ccc(-c2csc(/N=C3\C(=O)Nc4ccccc43)n2)cc1 — within 1.5-fold, 3510 nM
- Cn1cc(C2=C(c3cn(CCCCN)c4ccccc34)C(=O)NC2=O)c2ccccc21 — higher, > 25000 nM
- O=S(=O)(Nc1ccccc1Cl)c1ccc(-c2cnc(C3CC3)o2)cc1 — within 1.5-fold, 6910 nM
- CCCNNC(=O)/C=C/c1ccc(CNCCc2c(C)[nH]c3ccccc23)cc1 — 8.9-fold lower, 529 nM
- Fc1ccc2[nH]cc(-c3nonc3-c3c[nH]c4ccc(Br)cc34)c2c1 — within 1.5-fold, 4720 nM
- COc1cccc(-c2cc(=O)c3cc(OC)ccc3[nH]2)c1 — higher, > 100000 nM
- COc1cc(/C=C2\C(=O)Nc3cc(C)c(O)cc32)cc(OC)c1OC — within 1.5-fold, 5880 nM
- CN(C)S(=O)(=O)c1ccc(-c2nc(C(Cl)Cl)nc3cc(-c4ccc(F)cc4)nn23)cc1 — within 1.5-fold, 4640 nM
- COc1cc(-c2cc3ncccc3c3nc(N)c4cccnc4c23)cc(OC)c1OC — 14-fold higher, 66800 nM
- Nc1ccc(C2=NN(c3ccccc3)C(c3ccc(Cl)cc3)C2)cc1 (stereo unspecified) — within 1.5-fold, 4090 nM
- COc1ccc(-c2cn[nH]c2-c2cc(OC)c3c(c2)OCO3)cc1 — 6.4-fold lower, 733 nM
- Cc1nc(SCC(=O)Nc2nc(-c3ccc(Cl)cc3)cs2)n(Nc2ccccc2)c1C — within 1.5-fold, 6270 nM
- COc1ccc(C(=O)/C=C/c2ccc(C)cc2)cc1OC — 5.2-fold higher, 24600 nM
- CCOC(=O)c1sc(-c2ccc(OS(=O)(=O)c3ccc(Br)s3)c(C=O)c2)nc1C — 2-fold higher, 9200 nM
- CC[N+](CC)=c1sc2c(s1)C(c1ccc(Cl)cc1)Oc1ccc(Cl)cc1-2 (stereo unspecified) — within 1.5-fold, 4120 nM
- Cc1ccc(C)c2c1C(O)(C#Cc1ccccc1)c1ccccc1C2(O)C#Cc1ccccc1 (stereo unspecified) — higher, > 100000 nM
- O=C(Nc1cccc(-n2ccc3c(NC(=O)c4ccccc4)nccc32)c1)Nc1cc(C(F)(F)F)cc(C(F)(F)F)c1 — 2.9-fold higher, 13600 nM
- C=C1C(=O)O[C@H]2[C@H]1CC/C(COC(=O)CSCCSCC(=O)OC/C1=C/CC[C@@]3(C)O[C@H]3[C@H]3OC(=O)C(=C)[C@@H]3CC1)=C\CC[C@@]1(C)O[C@@H]21 — 1.6-fold lower, 2850 nM
- O=C(CO[N+](=O)[O-])Nc1ccc(C(=O)/C=C/c2ccc(Cl)cc2)cc1 — within 1.5-fold, 5070 nM
- COC(=O)c1c2c(c[n+]([O-])c1C)C(=O)C=CC2=O — 1.6-fold lower, 3010 nM
- Cc1nn(-c2nc3ccccc3[nH]2)c(N)c1-c1ccc(Cl)cc1 — higher, > 100000 nM
- CCC[CH2][Sn]([CH2]CCC)([CH2]CCC)[O]c1ccc(Cl)cc1Cl — 19-fold lower, 250 nM
- C#CCOc1cccc(-c2ncnc3cc(NC(=O)CCl)ccc23)c1 — within 1.5-fold, 3540 nM
- OCc1ccc(-c2ccc(-c3ccc(CO)o3)[se]2)o1 — 6.7-fold lower, 704 nM
- CNC(=O)c1ccc(N2CCN(Cc3ccc4nc(C)c(=O)[nH]c4c3F)CC2)c(F)n1 — higher, > 100000 nM
- CCc1cccc(C)c1NC(=O)c1sc2nc3c(cc2c1N)CCCCC3 — higher, > 100000 nM
- S=C(Nc1ccc(Br)cc1)Nc1ccc(Br)cc1 — 3-fold higher, 14000 nM
- CCN(Cc1cccc(F)c1)c1ccc(CO)c(Cl)c1 — 120-fold lower, 38.1 nM
- COc1cc(NC(N)=NCCC(C)(C)Oc2ccc(C(F)(F)F)cc2)ncc1C#N — 1.9-fold lower, 2440 nM
- Cc1ccc2c(n1)C(=O)C(Cl)=C(Nc1ccc(C)c(C)c1)C2=O — 3.5-fold lower, 1340 nM
- CN(C)CCCOc1ccc(-c2ccc3ncc4c(c3c2)n(C2CCOCC2)c(=O)n4C)cn1 — 3.3-fold higher, 15700 nM
- COc1cc(OC)cc(N(CCNC(C)C)c2ccc3ncc(-c4cnn(C)c4)nc3c2)c1 — 2.8-fold higher, 13000 nM

`FC(F)c1nc2ccccc2n1-c1nc(N2CCOCC2)nc(N2CCOCC2)n1` was tested, and the GI50 was 135 nM and 124 nM.
With `Cc1cnc(NC(=O)Nc2cc(Br)c(C)cc2OC[C@@H]2CNCCO2)cn1` the GI50 was 3860 nM and 834 nM.
In the case of `CN[C@H]1C=C[C@@H]2/C=C(C)/C=C/[C@@H](C)[C@H]([C@H](C)[C@H](O)[C@@H](C)NC(C)=O)OC(=O)/C=C/C=C(C)\C=C\[C@]2(C)C1`, the GI50 is reported as < 1 nM and 4.9 nM.

With `FC(F)c1nc2ccccc2n1-c1nc(N2CCOCC2)nc(N2CCOCC2)n1` the TGI was 971 nM and 607 nM.
For `Cc1cnc(NC(=O)Nc2cc(Br)c(C)cc2OC[C@@H]2CNCCO2)cn1`, the TGI was > 10000 nM and 5490 nM.
